Laboratory results taken from PMC10600239, “Selective MCL-1 inhibitor ABBV-467 is efficacious in tumor models but is associated with cardiac troponin increases in patients” (Communications Medicine, 2023).
pEC50: −log10 of the molar value. “And” between values parts separate entries of the source, which are not always exact repeats. Equal entries are not always repeated. Where two headings read alike, the source gives them in different places.

Tests used:
H929 cells = assay: In vitro cell viability assay (CellTiter-Glo); assay type: cell-based, human; details: for pEC50: read-out: Individual EC50
Description: (§1) All cell lines were grown and treated in RPMI 1640 or Dulbecco’s modified Eagle medium (Sigma, St. Louis, MO) supplemented with 10% fetal bovine serum (Gibco) or 10% human serum (Sigma) and maintained in a humidified incubator at 5% CO2 and 37 °C. DLD-1, MV4-11, NCI-H929 (all ATCC, Manassas, VA, USA) and AMO-1 (DSMZ, Braunschweig, Germany) cells were plated 4000 cells per well in 384-well tissue culture plates and treated with compounds of interest for 24 h at 37 °C, 5% CO2 humidified incubator. Each concentration was tested in duplicate at least 3 separate times. Adherent cells were allowed to adhere overnight prior to treatment. Alternatively, AMO-1 or NCI-H929 cells were treated with ABBV-467 for the indicated contact times (1–24 h) at 37 °C in a 5% CO2 humidified incubator and washed 3 times with compound-free media prior to incubation for the remainder of a 24-h treatment period. Cell viability was subsequently determined using CellTiter-Glo (Promega, Madison, WI, USA) according to the manufacturer’s instructions.
(§2) For in vitro viability assays, mean EC50 and EC90 values were determined from the resulting dose-response curves from at least 3 independent experiments, and depict the mean ± standard error of the mean.
(§3) Fig. 2 Apoptosis induced by ABBV-467 is mechanism based and induces cell death in MCL-1-dependent cell lines after short target engagement periods. H929 cells were treated with ABBV-467 in the presence or absence of the pan-caspase inhibitor z-VAD-fmk (50 µM) and the impact on caspase-3/7 activation (a), mitochondrial membrane potential (ΔΨm; b), and apoptosis (c) determined. Alternatively, BAK-deficient SKBR3 cells were treated with ABBV-467 for 24 h and the impact on cell viability compared with the parental cell line, determined by CellTiter-Glo. Inset depicts a western blot of BAK and BAX expression in SKBR3 cell variants using GAPDH as a loading control. Each of the 3 proteins were probed on separate blots (d). Data in (a–d) are presented as the mean ± standard error of the mean. H929 and AMO-1 cells were treated with ABBV-467 at the indicated concentrations and the impact on caspase-3/7 activation and viability (DRAQ7-positive) cells determined over time by Incucyte®. Data are presented as the mean ± standard deviation (e). H929 or AMO-1 cells were cultured in media containing 10% human serum and treated with ABBV-467 for the indicated contact times. Cells were subsequently washed 3 times with drug-free media and incubated in drug-free media for the remainder of the 24-h treatment period at 37 °C before cell viability was determined by CellTiter-Glo. Mean EC50 and EC90 values were determined from the resulting dose-response curves from at least 3 independent experiments, each assessed in quadruplicate, and depict the mean ± standard error of the mean. Presented ABBV-467 dose-response curves in H929 and AMO-1 cells were compiled from at least 3 independent experiments (f).

AMO-1 cells = assay: In vitro cell viability assay (CellTiter-Glo); assay type: cell-based, human; details: for pEC50: read-out: Individual EC50
Description: as §1, §2, §3

DLD-1 cells = assay: In vitro cell viability assay (CellTiter-Glo); assay type: cell-based, human; details: Homo sapiens; for EC50: DLD-1, read-out: DLD-1 EC50 (nM), 10% FBS, 24 h continuous treatment
Description: as §1, §2

MV4-11 cells = assay: In vitro cell viability assay (CellTiter-Glo); assay type: cell-based, human; details: for pEC50: read-out: Individual EC50
Description: as §1, §2

SKBR3 cells = assay: Cell viability of parental and BAK-, BAX-, BCL2L11-, PMAIP1-deficient SKBR3 cells (CellTiter-Glo); assay type: cell-based; set-up: SKBR3 BAK Fig 2D: unit not given here
Description: as §3
Supplementary Fig. S5: SKBR3 cells deficient in BAX, BAK , PM AIP 1 (gene encoding the protein NOXA),
BCL 2L 11 (gene encoding the protein BIM) were treated with ABBV-467 for 24 hours and the impact on
cell death compared to the parental cell line determined by CellTiter- Glo™.

[1] = Homo sapiens, NCI-H929, 24 h, read-out: H929 EC50 (nM, 10% FBS), 10% FBS, 24 h continuous treatment
[2] = Homo sapiens, AMO1, 24 h, read-out: AMO-1 EC50 (nM, 10% FBS), 10% FBS, 24 h continuous treatment
[3] = Homo sapiens, MV4-11, 24 h, read-out: MV4-11 EC50 (nM, 10% FBS), 10% FBS, 24 h continuous treatment
[4] = Homo sapiens, NCI-H929, NCI-H929, arithmetic mean, read-out: Arithmetic Mean EC50 nM
[5] = Homo sapiens, NCI-H929, NCI-H929, arithmetic mean, read-out: Arithmetic Mean EC50 µM
[6] = NCI-H929, individual determinations
[7] = AMO-1, individual determinations
[8] = Homo sapiens, AMO1, AMO-1, arithmetic mean, read-out: Arithmetic Mean EC50 nM
[9] = Homo sapiens, AMO1, AMO-1, arithmetic mean, read-out: Arithmetic Mean EC50 µM
[10] = Homo sapiens, AMO1, AMO-1, individual determinations
[11] = DLD-1, arithmetic mean, read-out: Arithmetic Mean EC50
[12] = DLD-1, individual determinations, read-out: Individual EC50
[13] = Homo sapiens, MV4-11, MV4-11, arithmetic mean, read-out: Arithmetic Mean EC50 nM
[14] = Homo sapiens, MV4-11, MV4-11, arithmetic mean, read-out: Arithmetic Mean EC50 µM
[15] = Homo sapiens, MV4-11, MV4-11, individual determinations
[16] = MV4-11, individual determinations

Compound	EC50 (H929 cells; [1]) [nM]	EC50 (AMO-1 cells; [2]) [nM]	EC50 (DLD-1 cells) [nM]	EC50 (MV4-11 cells; [3]) [nM]	EC50 (H929 cells; [4]) [nM]	EC50 (H929 cells; [5]) [nM]	pEC50 (H929 cells; [6])	pEC50 (AMO-1 cells; [7])	EC50 (AMO-1 cells; [8]) [nM]	EC50 (AMO-1 cells; [9]) [nM]	pEC50 (AMO-1 cells; [10])	pEC50 (DLD-1 cells; [11])	pEC50 (DLD-1 cells; [12])	EC50 (MV4-11 cells; [13]) [nM]	EC50 (MV4-11 cells; [14]) [nM]	pEC50 (MV4-11 cells; [15])	pEC50 (MV4-11 cells; [16])	other results
CO[C@H]1/C=C/C[C@H](C)[C@@H](C)S(=O)(=O)NC(=O)c2ccc3c(c2)N(C[C@@H]2CC[C@H]21)C[C@@]1(CCCc2cc(Cl)ccc21)CO3 [AMG 176, reference compound]	195	90.6	> 10000	106	–	–	–	–	–	–	–	–	–	–	–	–	–	–
CO[C@]1(CN2CCN3CCCC[C@@H]3C2)/C=C/C[C@H](C)[C@@H](C)S(=O)(=O)NC(=O)c2ccc3c(c2)N(C[C@@H]2CC[C@H]21)C[C@@]1(CCCc2cc(Cl)ccc21)CO3 [AMG 397, reference compound]	13	13.5	> 10000	43.6	13	13	7.87 and 7.89	7.88 and 7.89	13.5	13.5	7.83	< 5.00	< 5.00	43.6	43.6	7.35	7.38 and 7.35	pEC50 (H929 cells; Homo sapiens, NCI-H929, NCI-H929, individual determinations): 7.90
CO[C@H]1/C=C/C[C@H](C)[C@@H](C)S(=O)(=O)NC(=O)c2ccc3c(c2)N(C[C@@H]2CC[C@H]21)C[C@@]1(CCCc2cc(Cl)ccc21)CO3 [AMG-176]	–	–	–	–	195	195	–	6.98 and 6.89 and 6.76	90.6	90.6	–	< 5.00	< 5.00	106	106	–	7.07 and 6.69	–
Cc1c2c(nn1C)CSCc1cc(n(C)n1)CSc1cc(c3ccccc3c1)OCCCc1c(C(=O)O)n(C)c3c-2c(Cl)ccc13 [AZD5991, reference compound]	31.7	22.9	> 10000	34.9	–	–	–	–	–	–	–	–	–	–	–	–	–	–
Cc1c2c(nn1C)CSCc1cc(n(C)n1)CSc1cc(c3ccccc3c1)OCCCc1c(C(=O)O)n(C)c3c-2c(Cl)ccc13 [AZD-5991]	–	–	–	–	31.6	31.6	7.66 and 7.69 and 7.70 and 7.19	7.73 and 7.74 and 7.50	22.9	22.9	7.64	< 5.00	< 5.00	34.9	34.9	7.44	7.46 and 7.48	–
Cc1c(Cl)c2c(Cl)c(C)c1-c1c(-c3ccc(F)cc3)sc3ncnc(c13)O[C@@H](C(=O)O)Cc1cc(ccc1OCc1ccnc(-c3ccc(OC[C@H]4COCCO4)cc3)n1)OC[C@@H](CN1CCN(C)CC1)O2 [Compound A-1747745.7]	–	–	–	–	–	–	–	–	–	–	–	–	–	–	–	–	–	SKBR3 BAK Fig 2D (SKBR3 cells; SKBR3 BAK-/-, Log [A-1747745.7] uM 0.045757): 84.0406 and 88.7361 and 91.3691; SKBR3 BAK Fig 2D (SKBR3 cells; SKBR3 BAK-/-, Log [A-1747745.7] uM 0.522879): 91.5492 and 90.6375 and 98.324; SKBR3 BAK Fig 2D (SKBR3 cells; SKBR3 BAK-/-, Log [A-1747745.7] uM 1): 71.243 and 87.693 and 82.7613; SKBR3 BAK Fig 2D (SKBR3 cells; SKBR3 BAK-/-, Log [A-1747745.7] uM -0.43136): 93.7393 and 91.7734 and 95.9555; SKBR3 BAK Fig 2D (SKBR3 cells; SKBR3 BAK-/-, Log [A-1747745.7] uM -0.90849): 91.4405 and 96.0162 and 91.1767; SKBR3 BAK Fig 2D (SKBR3 cells; SKBR3 BAK-/-, Log [A-1747745.7] uM -1.38561): 96.4117 and 96.5016 and 91.1114; SKBR3 BAK Fig 2D (SKBR3 cells; SKBR3 BAK-/-, Log [A-1747745.7] uM -1.86273): 100.833 and 96.8873 and 90.9219; SKBR3 BAK Fig 2D (SKBR3 cells; SKBR3 BAK-/-, Log [A-1747745.7] uM -2.33985): 101.031 and 99.3037 and 92.3815; SKBR3 BAK Fig 2D (SKBR3 cells; SKBR3 BAK-/-, Log [A-1747745.7] uM -2.81697): 103.475 and 99.2425 and 96.192; SKBR3 BAK Fig 2D (SKBR3 cells; SKBR3 BAK-/-, Log [A-1747745.7] uM -3.29409): 92.6268 and 101.141 and 97.8192; SKBR3 BAK Fig 2D (SKBR3 cells; SKBR3 BAK-/-, Log [A-1747745.7] uM -3.79): 106.888 and 100.173 and 98.0201; SKBR3 BAK Fig 2D (SKBR3 cells; SKBR3 Parent, Log [A-1747745.7] uM -1.86273): 28.8447 and 52.516 and 42.8969; SKBR3 BAK Fig 2D (SKBR3 cells; SKBR3 Parent, Log [A-1747745.7] uM -2.33985): 83.0425 and 94.5116 and 88.5924; SKBR3 BAK Fig 2D (SKBR3 cells; SKBR3 Parent, Log [A-1747745.7] uM -2.81697): 98.7606 and 99.166 and 97.8729; SKBR3 BAK Fig 2D (SKBR3 cells; SKBR3 Parent, Log [A-1747745.7] uM -3.29409): 89.9706 and 97.7937 and 96.3217; SKBR3 BAK Fig 2D (SKBR3 cells; SKBR3 Parent, Log [A-1747745.7] uM -3.79): 100.8 and 103.293 and 99.6415
